“And” between values parts separate entries of the source, which are not always exact repeats. Identical values can stand only once. Toxic doses and inconclusive results are not listed.
Tested on: BDF1 mice, P388 leukemia ip, median survival T/C
Assay: NCI In Vivo Anticancer Drug Screen. Data for tumor model P388 Leukemia (intraperitoneal) in B6D2F1 (BDF1) mice
Settings: endpoint: median survival time, higher = longer survival
How it was run: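 In tumour-bearing mice, survival after compound treatment is set against the vehicle group and given as a quotient.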

[1] = dose: 6.25 mg/kg/injection, schedule: Q01DX009 (ip), vehicle: saline with Tween-80
[2] = dose: 12.5 mg/kg/injection, schedule: Q01DX009 (ip), vehicle: saline with Tween-80
[3] = dose: 25.0 mg/kg/injection, schedule: Q01DX009 (ip), vehicle: saline with Tween-80
[4] = dose: 100.0 mg/kg/injection, schedule: Q04DX003 (ip), vehicle: saline with Tween-80
[5] = dose: 200.0 mg/kg/injection, schedule: Q04DX003 (ip), vehicle: saline with Tween-80
[6] = dose: 400.0 mg/kg/injection, schedule: Q04DX003 (ip), vehicle: saline with Tween-80
[7] = dose: 100.0 mg/kg/injection, schedule: Q01DX009 (ip), vehicle: saline with Tween-80

COc1ccc(C(=O)/C=C/c2ccccc2)c(O)c1CC=C(C)C
T/C (dose: 1.25 mg/kg/injection, schedule: Q01DX009 (ip), vehicle: Klucel (hydroxypropylcellulose) (HPC)): 114 % of control
T/C (dose: 2.5 mg/kg/injection, schedule: Q01DX009 (ip), vehicle: Klucel (hydroxypropylcellulose) (HPC)): 118 % of control
T/C (dose: 5.0 mg/kg/injection, schedule: Q01DX009 (ip), vehicle: Klucel (hydroxypropylcellulose) (HPC)): 91 % of control
T/C (dose: 10.0 mg/kg/injection, schedule: Q01DX009 (ip), vehicle: Klucel (hydroxypropylcellulose) (HPC)): 91 % of control
T/C (dose: 20.0 mg/kg/injection, schedule: Q01DX009 (ip), vehicle: Klucel (hydroxypropylcellulose) (HPC)): 95 % of control
T/C (dose: 40.0 mg/kg/injection, schedule: Q01DX009 (ip), vehicle: Klucel (hydroxypropylcellulose) (HPC)): 91 % of control

CC(=O)Nc1ccc(S(=O)(=O)N/N=C\c2ccc(Cl)c(Cl)c2)cc1
T/C [1]: 99 % of control
T/C [2]: 98 % of control
T/C [3]: 96 % of control

Cn1c(CCCC(=O)O)nc2cc(N(CCCl)CCCl)ccc21
T/C (dose: 1.8 mg/kg/injection, schedule: Q04DX003 (ip), vehicle: saline): 116 % of control
T/C (dose: 2.5 mg/kg/injection, schedule: Q01DX009 (ip), vehicle: saline): 154 % of control
T/C (dose: 4.3 mg/kg/injection, schedule: Q04DX003 (ip), vehicle: saline with Tween-80): 175 % of control
T/C (dose: 5.0 mg/kg/injection, schedule: Q01DX009 (ip), vehicle: saline): 166 % of control
T/C (dose: 6.5 mg/kg/injection, schedule: Q04DX003 (ip), vehicle: saline with Tween-80): 185 % of control
T/C (dose: 9.9 mg/kg/injection, schedule: Q04DX003 (ip), vehicle: saline with Tween-80): 180 % of control
T/C (dose: 10.0 mg/kg/injection, schedule: Q01DX009 (ip), vehicle: saline): 200 % of control
T/C (dose: 15.0 mg/kg/injection, schedule: Q04DX003 (ip), vehicle: saline with Tween-80): 200 % of control
T/C (dose: 22.5 mg/kg/injection, schedule: Q04DX003 (ip), vehicle: saline with Tween-80): 180 % of control

CC(C)OC(CCC#N)c1ccc(Cl)cc1 (stereo unspecified)
T/C (dose: 100.0 mg/kg/injection, schedule: Q04DX003 (ip), vehicle: other): 95 % of control
T/C (dose: 400.0 mg/kg/injection, schedule: Q04DX003 (ip), vehicle: other): 95 % of control

CCOC(=O)c1ccnc2ccc(O)cc12
T/C [4]: 91 % of control
T/C [5]: 108 % of control
T/C [6]: 95 % of control

CC1=CC(=O)N(O)CCCC(N)C(=O)OCCC(C)=CC(=O)N(O)CCCC(N)C(=O)OCCC(C)=CC(=O)N(O)CCCC(N)C(=O)OCC1 (stereo unspecified)
T/C (dose: 3.0 mg/kg/injection, schedule: Q01DX009 (ip), vehicle: Klucel (hydroxypropylcellulose) (HPC)): 89 % of control
T/C (dose: 6.0 mg/kg/injection, schedule: Q01DX009 (ip), vehicle: Klucel (hydroxypropylcellulose) (HPC)): 87 % of control
T/C (dose: 12.0 mg/kg/injection, schedule: Q01DX009 (ip), vehicle: Klucel (hydroxypropylcellulose) (HPC)): 87 % of control
T/C (dose: 24.0 mg/kg/injection, schedule: Q01DX009 (ip), vehicle: Klucel (hydroxypropylcellulose) (HPC)): 92 % of control

O=C1c2cccc3cc([N+](=O)[O-])cc(c23)C(=O)N1CCN1CCCC1
T/C [1]: 157 % of control
T/C [2]: 177 % of control

CC(Oc1ccc2ccccc2c1I)C(=O)O (stereo unspecified)
T/C (dose: 50.0 mg/kg/injection, schedule: Q01DX005 (ip), vehicle: saline with Tween-80): 91 % of control
T/C (dose: 100.0 mg/kg/injection, schedule: Q01DX005 (ip), vehicle: saline with Tween-80): 113 % of control
T/C (dose: 200.0 mg/kg/injection, schedule: Q01DX005 (ip), vehicle: saline with Tween-80): 106 % of control

CCc1cccc2c(NCCCCCCNc3c4ccccc4nc4c(CC)cccc34)c3ccccc3nc12
T/C (dose: 0.31 mg/kg/injection, schedule: Q01DX009 (ip), vehicle: lactic acid): 108 % of control
T/C (dose: 0.62 mg/kg/injection, schedule: Q01DX009 (ip), vehicle: lactic acid): 103 % of control
T/C (dose: 5.0 mg/kg/injection, schedule: Q01DX009 (ip), vehicle: lactic acid): 173 % of control

CC1CC(N)=NC1C(=O)NCCC#N (stereo unspecified)
T/C [7]: 98 % of control
T/C (dose: 400.0 mg/kg/injection, schedule: Q01DX009 (ip), vehicle: saline with Tween-80): 98 % of control

CCc1ccccc1NC(=O)c1cccc(Cl)c1
T/C [4]: 95 % of control
T/C [5]: 100 % of control
T/C [6]: 104 % of control

CC(C)(C)C1CC[N-]CC1.CC(C)(C)C1CC[N-]CC1.[Cl][Pt+2]([Cl])([Cl])[Cl]
T/C (dose: 0.78 mg/kg/injection, schedule: Q01DX009 (ip), vehicle: saline): 110 % of control
T/C (dose: 1.56 mg/kg/injection, schedule: Q01DX009 (ip), vehicle: saline): 115 % of control and 117 % of control
T/C (dose: 3.12 mg/kg/injection, schedule: Q01DX009 (ip), vehicle: saline): 100 % of control and 102 % of control and 111 % of control
T/C (dose: 6.25 mg/kg/injection, schedule: Q01DX009 (ip), vehicle: saline): 86 % of control and 108 % of control
T/C (dose: 12.5 mg/kg/injection, schedule: Q01DX009 (ip), vehicle: saline): 115 % of control
T/C (dose: 25.0 mg/kg/injection, schedule: Q01DX009 (ip), vehicle: saline): 91 % of control and 115 % of control

N/N=C(\N)c1nn[nH]n1
T/C [3]: 96 % of control
T/C (dose: 50.0 mg/kg/injection, schedule: Q01DX009 (ip), vehicle: saline with Tween-80): 96 % of control
T/C [7]: 110 % of control
T/C (dose: 200.0 mg/kg/injection, schedule: Q01DX009 (ip), vehicle: saline with Tween-80): 86 % of control

O=C(c1ccccc1)C(Cl)C(=O)c1ccccc1
T/C (dose: 50.0 mg/kg/injection, schedule: Q01DX001 (ip), vehicle: saline with Tween-80): 108 % of control
T/C (dose: 65.0 mg/kg/injection, schedule: Q01DX001 (ip), vehicle: saline with Tween-80): 120 % of control
T/C (dose: 150.0 mg/kg/injection, schedule: Q01DX001 (ip), vehicle: saline with Tween-80): 101 % of control
T/C (dose: 200.0 mg/kg/injection, schedule: Q01DX001 (ip), vehicle: saline with Tween-80): 105 % of control

ClC1=C(Cl)[C@@]2(Cl)[C@H]3[C@H]4C[C@H]([C@@H]5O[C@H]45)[C@H]3[C@@]1(Cl)C2(Cl)Cl
T/C (dose: 3.12 mg/kg/injection, schedule: Q01DX009 (ip), vehicle: Klucel (hydroxypropylcellulose) (HPC)): 91 % of control
T/C (dose: 6.25 mg/kg/injection, schedule: Q01DX009 (ip), vehicle: Klucel (hydroxypropylcellulose) (HPC)): 87 % of control

CN(C)c1ccc(C(N)=O)cn1
T/C (dose: 0.51 mg/kg/injection, schedule: Q01DX009 (ip), vehicle: saline): 95 % of control
T/C (dose: 1.03 mg/kg/injection, schedule: Q01DX009 (ip), vehicle: saline): 115 % of control
T/C (dose: 2.0 mg/kg/injection, schedule: Q01DX009 (ip), vehicle: saline): 90 % of control
T/C (dose: 2.06 mg/kg/injection, schedule: Q01DX009 (ip), vehicle: saline): 100 % of control
T/C (dose: 3.0 mg/kg/injection, schedule: Q04DX003 (ip), vehicle: saline): 100 % of control
T/C (dose: 3.13 mg/kg/injection, schedule: Q01DX009 (ip), vehicle: saline): 100 % of control
T/C (dose: 4.12 mg/kg/injection, schedule: Q01DX009 (ip), vehicle: saline): 112 % of control
T/C (dose: 4.7 mg/kg/injection, schedule: Q01DX009 (ip), vehicle: saline): 86 % of control
T/C (dose: 6.0 mg/kg/injection, schedule: Q04DX003 (ip), vehicle: saline): 100 % of control
T/C (dose: 12.0 mg/kg/injection, schedule: Q04DX003 (ip), vehicle: saline): 109 % of control
T/C (dose: 17.0 mg/kg/injection, schedule: Q04DX003 (ip), vehicle: saline): 118 % of control
T/C (dose: 40.0 mg/kg/injection, schedule: Q04DX003 (ip), vehicle: saline): 95 % of control

CN1CCN(CCNc2ccc(CO)c3sc4ccccc4c(=O)c23)CC1
T/C (dose: 25.0 mg/kg/injection, schedule: Q01DX009 (ip), vehicle: Klucel (hydroxypropylcellulose) (HPC)): 120 % of control
T/C (dose: 50.0 mg/kg/injection, schedule: Q01DX009 (ip), vehicle: Klucel (hydroxypropylcellulose) (HPC)): 109 % of control
T/C (dose: 100.0 mg/kg/injection, schedule: Q01DX009 (ip), vehicle: Klucel (hydroxypropylcellulose) (HPC)): 151 % of control

C=C1C(=O)OC2CC(C)CCC/C(CO)=C/C(OC(=O)/C(=C/CO)CO)C12 (stereo unspecified)
T/C (dose: 3.5 mg/kg/injection, schedule: Q01DX009 (ip), vehicle: saline): 104 % of control
T/C (dose: 7.0 mg/kg/injection, schedule: Q01DX009 (ip), vehicle: saline): 108 % of control

Cn1c(=O)[nH]c2ccccc2c1=O
T/C (dose: 100.0 mg/kg/injection, schedule: Q01DX001 (ip), vehicle: Klucel (hydroxypropylcellulose) (HPC)): 104 % of control
T/C (dose: 200.0 mg/kg/injection, schedule: Q01DX001 (ip), vehicle: Klucel (hydroxypropylcellulose) (HPC)): 104 % of control
T/C (dose: 400.0 mg/kg/injection, schedule: Q01DX001 (ip), vehicle: Klucel (hydroxypropylcellulose) (HPC)): 107 % of control

Reference: PubChem BioAssay AID328 (DTP/NCI, 2004)
